In patent US10172829B2 (priority 2014, dated 2019):

target: TcdB (Clostridioides difficile, UniProt P18177); assay: Mouse TcdB toxigenic model; format: in vivo; conditions: mice i.p. 25 ng TcdB pretreated with 100 nM ebselen; 72 hours
Sequence (P18177 2-2366 limits assumed): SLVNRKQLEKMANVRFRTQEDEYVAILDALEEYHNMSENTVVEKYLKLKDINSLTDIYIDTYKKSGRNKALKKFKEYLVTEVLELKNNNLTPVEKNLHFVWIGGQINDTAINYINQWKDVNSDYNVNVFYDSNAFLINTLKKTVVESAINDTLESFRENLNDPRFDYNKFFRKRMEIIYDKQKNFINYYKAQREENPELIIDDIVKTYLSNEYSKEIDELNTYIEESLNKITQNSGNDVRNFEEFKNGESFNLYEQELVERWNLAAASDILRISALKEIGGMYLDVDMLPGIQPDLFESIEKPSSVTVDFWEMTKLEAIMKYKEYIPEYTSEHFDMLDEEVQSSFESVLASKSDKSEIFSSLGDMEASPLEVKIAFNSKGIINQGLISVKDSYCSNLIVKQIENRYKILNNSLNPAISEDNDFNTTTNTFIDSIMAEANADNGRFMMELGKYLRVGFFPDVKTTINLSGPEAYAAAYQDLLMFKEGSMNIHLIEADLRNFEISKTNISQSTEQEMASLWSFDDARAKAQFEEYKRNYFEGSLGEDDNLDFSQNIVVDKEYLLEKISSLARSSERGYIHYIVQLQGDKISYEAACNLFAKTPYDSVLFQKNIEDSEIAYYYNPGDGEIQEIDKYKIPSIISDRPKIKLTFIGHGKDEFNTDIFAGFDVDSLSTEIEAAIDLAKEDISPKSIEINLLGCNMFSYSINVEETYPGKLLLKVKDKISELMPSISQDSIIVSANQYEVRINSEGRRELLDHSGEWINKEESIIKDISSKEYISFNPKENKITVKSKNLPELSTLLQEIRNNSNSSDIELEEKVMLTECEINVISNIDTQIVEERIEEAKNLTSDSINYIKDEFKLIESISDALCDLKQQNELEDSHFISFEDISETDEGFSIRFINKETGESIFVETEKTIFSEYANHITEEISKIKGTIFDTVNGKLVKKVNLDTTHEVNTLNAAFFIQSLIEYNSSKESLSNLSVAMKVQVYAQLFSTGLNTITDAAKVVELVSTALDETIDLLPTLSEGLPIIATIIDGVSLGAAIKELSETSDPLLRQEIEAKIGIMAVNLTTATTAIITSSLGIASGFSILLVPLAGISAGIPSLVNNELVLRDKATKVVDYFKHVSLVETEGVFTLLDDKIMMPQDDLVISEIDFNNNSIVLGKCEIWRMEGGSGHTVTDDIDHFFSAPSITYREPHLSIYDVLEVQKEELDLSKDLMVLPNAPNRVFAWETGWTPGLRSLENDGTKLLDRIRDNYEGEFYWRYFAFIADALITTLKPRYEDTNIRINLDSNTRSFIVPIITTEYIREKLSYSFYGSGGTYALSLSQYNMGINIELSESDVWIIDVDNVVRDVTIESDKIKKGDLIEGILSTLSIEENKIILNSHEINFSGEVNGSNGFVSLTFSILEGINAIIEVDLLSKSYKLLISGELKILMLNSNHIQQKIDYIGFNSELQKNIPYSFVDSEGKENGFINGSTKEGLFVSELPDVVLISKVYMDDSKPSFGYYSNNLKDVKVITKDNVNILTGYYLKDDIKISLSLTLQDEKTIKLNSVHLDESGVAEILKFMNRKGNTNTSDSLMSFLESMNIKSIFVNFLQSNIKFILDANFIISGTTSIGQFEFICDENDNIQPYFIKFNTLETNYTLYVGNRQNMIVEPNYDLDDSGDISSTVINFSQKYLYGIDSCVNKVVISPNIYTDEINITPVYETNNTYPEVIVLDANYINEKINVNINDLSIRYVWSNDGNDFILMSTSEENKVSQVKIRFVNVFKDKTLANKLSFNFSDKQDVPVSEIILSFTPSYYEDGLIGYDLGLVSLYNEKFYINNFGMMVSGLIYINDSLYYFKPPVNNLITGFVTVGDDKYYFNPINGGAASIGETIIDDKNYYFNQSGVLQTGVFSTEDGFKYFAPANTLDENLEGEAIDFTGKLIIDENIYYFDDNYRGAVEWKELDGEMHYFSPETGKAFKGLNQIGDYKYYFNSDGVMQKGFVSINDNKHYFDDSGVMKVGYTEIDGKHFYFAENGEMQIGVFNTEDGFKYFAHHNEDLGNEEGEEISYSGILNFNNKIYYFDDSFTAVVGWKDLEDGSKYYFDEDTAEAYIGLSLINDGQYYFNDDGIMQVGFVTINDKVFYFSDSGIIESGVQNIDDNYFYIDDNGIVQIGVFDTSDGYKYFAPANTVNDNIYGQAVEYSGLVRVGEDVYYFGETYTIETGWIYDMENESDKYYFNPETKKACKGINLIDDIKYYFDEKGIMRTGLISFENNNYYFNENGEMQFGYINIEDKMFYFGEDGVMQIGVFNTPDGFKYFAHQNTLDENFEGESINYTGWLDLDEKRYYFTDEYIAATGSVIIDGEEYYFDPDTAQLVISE

Structure (SMILES)	changes in vital signs (clinical signs of toxin action)
O=c1c2ccccc2[se]n1-c1ccccc1 [Ebselen, 2-phenyl-1,2-benzoselenazol-3-one]	no significant changes in vital signs

same assay, conditions: mice i.p. 25 ng TcdB pretreated with 100 nM ebselen; monitored three days

Structure (SMILES)	survival rate
O=c1c2ccccc2[se]n1-c1ccccc1 [Ebselen, 2-phenyl-1,2-benzoselenazol-3-one]	100%

target: full length TcdB (Clostridioides difficile, UniProt P18177); assay: not given; conditions: read-out: IC50 of inhibition of labeling of the CPD, IP6 activated, AWP-19 labeling

Structure (SMILES)	IC50
O=c1c2ccccc2[se]n1-c1ccccc1 [Ebselen, 2-phenyl-1,2-benzoselenazol-3-one]	0.0172 µM

test system: human foreskin fibroblast (HFF cells); assay: cells; format: cell-based; conditions: read-out: EC50 of blocking cell rounding

Structure (SMILES)	EC50
O=c1c2ccccc2[se]n1-c1ccccc1 [Ebselen, 2-phenyl-1,2-benzoselenazol-3-one]	0.021 µM

same assay, conditions: read-out: EC50 of protective effect against cell rounding

Structure (SMILES)	EC50
O=c1c2ccccc2[se]n1-c1ccccc1 [Ebselen, 2-phenyl-1,2-benzoselenazol-3-one]	0.217 µM

target: T1, TcdB CPD (Clostridioides difficile, UniProt P18177); assay: biochemical; design: species or system Clostridium difficile; conditions: not given
T1 construct: The compounds were screened against the recombinantly expressed cysteine protease domain; made in house
T1 sequence (P18177 544-799 limits assumed): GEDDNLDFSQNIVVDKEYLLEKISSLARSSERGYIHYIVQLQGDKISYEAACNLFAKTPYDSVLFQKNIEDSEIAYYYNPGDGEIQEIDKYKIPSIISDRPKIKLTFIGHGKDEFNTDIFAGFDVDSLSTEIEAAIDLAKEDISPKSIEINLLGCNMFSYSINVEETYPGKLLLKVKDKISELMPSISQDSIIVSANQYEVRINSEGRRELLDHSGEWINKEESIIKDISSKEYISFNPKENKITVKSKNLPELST

Structure (SMILES)	IC50
Cc1cc(C)c2c(=O)n(CC(=O)NCCCSC3CCCCC3)sc2n1 [STF 102625]	1.32 µM
COC(=O)N1CCN(C(=O)Cn2sc3nc(C)cc(C)c3c2=O)CC1 [STF 102635]	4.84 µM
CCOCCCNC(=O)Cn1sc2nc(C)cc(C)c2c1=O [STF 102644]	2.81 µM
Cc1cc(C)c2c(=O)n(CC(=O)NC(C)CCc3ccccc3)sc2n1 (stereo not drawn) [STF 102645]	3.99 µM
Cc1cc(C)c2c(=O)n(CC(=O)NCc3ccc4c(c3)OCO4)sc2n1 [STF 102654]	3.9 µM
Cc1cc(C)c2c(=O)n(CC(=O)NCCc3ccc(Cl)cc3)sc2n1 [STF 102655]	3.14 µM
CCCCNC(=O)Cn1sc2nc(C)cc(C)c2c1=O [STF 102686]	1.98 µM
COCCNC(=O)Cn1sc2nc(C)cc(C)c2c1=O [STF 102766]	2.38 µM

target: TcdB protease (Clostridioides difficile, UniProt P18177); assay: biochemical; design: species or system Clostridium difficile; conditions: not given
Sequence (P18177 544-797 limits assumed): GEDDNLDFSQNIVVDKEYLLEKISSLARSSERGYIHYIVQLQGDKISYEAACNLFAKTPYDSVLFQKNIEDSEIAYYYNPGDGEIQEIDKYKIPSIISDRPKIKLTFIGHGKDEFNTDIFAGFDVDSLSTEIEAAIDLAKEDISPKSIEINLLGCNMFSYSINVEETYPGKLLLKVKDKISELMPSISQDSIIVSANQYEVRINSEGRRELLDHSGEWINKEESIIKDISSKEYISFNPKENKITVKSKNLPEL

Structure (SMILES)	IC50
O=c1c2ccccc2[se]n1-c1ccccc1 [Ebselen, 2-phenyl-1,2-benzoselenazol-3-one]	5.14 µM
COc1ccc(-n2[se]c3ccccc3c2=O)c(C)c1 [MG-1, 2-(4-methoxy-2-methylphenyl)-1,2-benzoselenazol-3-one]	6.47 µM
COc1ccc(C)cc1-n1[se]c2ccccc2c1=O [MG-2, 2-(2-methoxy-5-methylphenyl)-1,2-benzoselenazol-3-one]	5.58 µM
COc1ccc(Cl)cc1NC(=O)c1ccccc1[Se][Se]c1ccccc1C(=O)Nc1cc(Cl)ccc1OC [MG-7, 2,2′-diselane-1,2-diylbis[N-(5-chloro-2-methoxyphenyl)benzamide]]	9.6 µM
COc1ccc(C(C)(C)C)cc1-n1[se]c2ccccc2c1=O [MG-8, 2-(2-methoxy-5-t-butylphenyl)-1,2-benzoselenazol-3-one]	8.5 µM
Cc1ccc(Cl)c(NC(=O)c2ccccc2[Se][Se]c2ccccc2C(=O)Nc2cc(C)ccc2Cl)c1 [MG-10, 2,2′-diselane-1,2 - diylbis[N-(2-chloro-5-methylphenyl)benzamide]]	7.33 µM
Cc1ccc(NC(=O)c2ccccc2[Se][Se]c2ccccc2C(=O)Nc2ccc(C)cc2Cl)c(Cl)c1 [MG-12, 2,2′-diselane-1,2-diylbis[N-(2-chloro-4-methylphenyl)benzamide]]	3.98 µM
Cc1ccc(-n2[se]c3ccccc3c2=O)cc1 [MG-13, 2-(4-methylphenyl)-1,2-benzoselenazol-3-one]	4.9 µM
O=C(Nc1ccccc1F)c1ccccc1[Se][Se]c1ccccc1C(=O)Nc1ccccc1F [MG-31, 2,2′-diselane-1,2-diylbis[N-(2-fluorophenyl)benzamide]]	4.92 µM
O=C(Nc1ccc(F)cc1F)c1ccccc1[Se][Se]c1ccccc1C(=O)Nc1ccc(F)cc1F [MG-33, 2,2′-diselane-1,2-diylbis[N-(2,4-difluorophenyl)benzamide]]	2.7 µM
O=c1c2ccccc2[se]n1-c1ccc(Cl)cc1F [MG-34, 2-(4-chloro-2-fluorophenyl)-1,2-benzoselenazol-3-one]	6.5 µM
O=C(Nc1ccc(F)cc1Cl)c1ccccc1[Se][Se]c1ccccc1C(=O)Nc1ccc(F)cc1Cl [MG-40, 2,2′-diselane-1,2-diylbis[N-(2-chloro-4-fluorophenyl)benzamide]]	7.38 µM
O=C(Nc1ccc(F)c(Cl)c1)c1ccccc1[Se][Se]c1ccccc1C(=O)Nc1ccc(F)c(Cl)c1 [MG-43, 2,2′-diselane-1,2-diylbis[N-(3-chloro-4-fluorophenyl)benzamide]]	5.09 µM
O=c1c2ccccc2[se]n1-c1ncccc1O [MG-48, 2-(3-hydroxypyridin-2-yl)-1,2-benzoselenazol-3-one]	7.44 µM
COc1cccc(NC(=O)c2ccccc2[Se][Se]c2ccccc2C(=O)Nc2cccc(OC)c2)c1 [MG-56, 2,2′-diselane-1,2-diylbis[N-(3-methoxyphenyl)benzamide]]	3.95 µM
Cc1c(Cl)cccc1NC(=O)c1ccccc1[Se][Se]c1ccccc1C(=O)Nc1cccc(Cl)c1C [MG-61, 2,2′-diselane-1,2-diylbis[N-(3-chloro-2-methylphenyl)benzamide]]	5.97 µM
O=c1c2ccccc2[se]n1-c1ccccc1O [MG-174, 2-(2-hydroxyphenyl)-1,2-benzoselenazol-3-one]	4.86 µM
